Legend:
[1] = target: T1, Acetylcholinesterase (Homo sapiens, UniProt P22303); assay: Inhibition of AChE (unknown origin) using acetylthiocholine iodide as substrate by Ellman's method
[2] = target: T1, Acetylcholinesterase; assay: Inhibition of AChE (unknown origin)

T1 sequence (P22303 whole entry): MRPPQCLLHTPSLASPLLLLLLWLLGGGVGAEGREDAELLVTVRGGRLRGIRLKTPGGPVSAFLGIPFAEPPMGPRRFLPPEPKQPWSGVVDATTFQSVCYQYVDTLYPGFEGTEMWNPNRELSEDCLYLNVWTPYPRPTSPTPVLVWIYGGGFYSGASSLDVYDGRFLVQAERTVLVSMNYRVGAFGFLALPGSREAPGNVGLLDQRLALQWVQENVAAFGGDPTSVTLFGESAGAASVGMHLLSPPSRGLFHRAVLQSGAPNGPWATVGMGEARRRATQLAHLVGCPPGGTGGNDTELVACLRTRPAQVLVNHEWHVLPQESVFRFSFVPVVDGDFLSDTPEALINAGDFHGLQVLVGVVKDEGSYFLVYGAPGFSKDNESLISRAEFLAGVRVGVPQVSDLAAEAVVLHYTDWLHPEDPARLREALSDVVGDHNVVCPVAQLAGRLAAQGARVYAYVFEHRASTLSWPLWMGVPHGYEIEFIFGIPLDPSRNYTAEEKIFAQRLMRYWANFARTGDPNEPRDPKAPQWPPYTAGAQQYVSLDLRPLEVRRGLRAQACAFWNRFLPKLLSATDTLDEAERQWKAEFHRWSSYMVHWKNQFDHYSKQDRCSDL

SMILES	IC50 [1] [µM]	IC50 [2] [µM]
C[C@@H]1C[C@H]2CC(=O)[C@H]3CCC[N+]4([O-])CCC[C@@H]2[C@]34C1 (stereo partly drawn)	> 100	
C[C@@H]1C[C@H]2CC(=O)[C@H]3CCCN4CCC[C@@H]2[C@]34C1	> 100	
C[C@@H]1C[C@H]2CC(=O)[C@H]3CCC[N+]4([O-])CCC[C@]2(O)[C@]34C1 (stereo partly drawn)		0.59
